Results: US12459876B2, “One-step kit-based synthesis of 2-deoxy-2-[18F]fluoro-D-sorbitol” (The Johns Hopkins University, priority 2020, dated 2025)
Read-outs that look alike come from different tables or passages of the source.

Assays:
[1] = human, in vivo; cited from earlier work
[2] = rat, in vivo; cited from earlier work
E. coli = conditions: cited from earlier work
K. pneumoniae = conditions: intravenous; PET 120 minutes post-tracer injection; n=6; Mann Whitney U test
[3] = in vivo; cited from earlier work

SMILES: OC[C@@H](O)[C@@H](O)[C@H](O)[C@@H]([18F])CO [^18F-FDS, 2-deoxy-2-[^18F]fluoro-D-sorbitol]
- Accumulation in the renal cortex [1]: rapid ^18F-FDS accumulation in the renal cortex with gradual transition to the parenchyma
- PET signal outside the site of infection (biodistribution) (Enterobacterales; patient with Enterobacter aerogenes cellulitis, MIP): Signal also is noted in the heart (blood pool), liver, kidneys, and the urinary bladder
- Monitoring of antimicrobial response by repeat imaging (Enterobacterales; patients, repeat imaging after antibiotic treatments): able to monitor antimicrobial response
- Accumulation in the renal cortex [2]: rapid accumulation
- Renal uptake [2]: significantly delayed
- Detection of therapeutic failures (E. coli; MDR, extended-spectrum β-lactamase producing E. coli strains): detect therapeutic failures
- Distinction of infection from sterile inflammation (E. coli; mouse models): able to distinguish infection from sterile inflammation
- SUVmean, areas of pneumonia compared to unaffected lung (K. pneumoniae): significantly higher
- Route of clearance [3]: predominantly cleared through the kidneys
